In brackets after ≈: the same amount, converted by molar mass. One block for each molecule: values may come before it. Activity calls are given as the source filed them. The calls are words filed in the database; no cut-off is given here.
Key:
[1] = Aqueous solubility of the compound; format: physicochemical; details: aqueous medium
[2] = Solubility of the compound in gastric fluid at pH 1.2; format: physicochemical; details: simulated gi fluid
[3] = test system: Rattus norvegicus; assay: Increase in GLP1 level in overnight fasted Wistar rats at 5 and 50 mg/kg, po; format: functional, organism-based; set-up: dose 50 mg/kg
[4] = test system: Rattus norvegicus; assay: Hypoglycemic activity in overnight fasted Wistar rats assessed as decrease in glucose AUC at 5 and 50 mg/kg, po by oral glucose tolerance test; format: functional, organism-based; set-up: dose 50 mg/kg

- solubility [1]: > 40 mg/mL
Structure (SMILES): Cc1ncccc1Oc1ncnc(OC2CCN(C(=O)OC(C)C)CC2)c1C

- solubility [2]: 8.6 mg/mL (≈ 20.1 mM)
Structure (SMILES): Cc1ncccc1Oc1ncnc(OC2C3COCC2CN(C(=O)OC(C)C)C3)c1C (stereo in doubt; 8) [listing 1 of 2 here]

Structure (SMILES): Cc1ncccc1Oc1ncnc(OC2C3COCC2CN(C(=O)OC(C)C)C3)c1C (stereo in doubt; 8) [listing 2 of 2 here]
- Activity [3]: Active
- Activity [4]: Active

- solubility [2]: > 66 mg/mL
Structure (SMILES): Cc1ncccc1Oc1ncnc(OC2C3COCC2CN(C(=O)OC(C)C)C3)c1C (stereo in doubt; 9)
